Square brackets hold non-standard residues; d marks the D form. Ends that are not written are not given here.
Tests used:
[1] = Net peptide charge and isoelectric point as a function of pH; assay type: physicochemical; settings: pH 7
Source text: The peptide may be purified. For example, the peptide may be lyophilized. […] Other peptides are within the scope of the disclosure.
Exemplary peptides having a charge of +5 to +9 include […](d)[…], […](d)[…], and […](d)[…]. In other embodiments, the purified peptide may be substantially neutral. […] Net charge may be selected by peptide design. Design of electrostatic charge in the peptide hydrogel may allow control of charge interaction with cell membrane and proteins.

[2] = test system: E. coli; assay: Antibacterial assay of PEPXR hydrogels, E. coli; assay type: cell-based; settings: evaluated against E. coli, S. aureus and P. aeruginosa
Source text: Thus, the peptide hydrogels described herein may generally comprise a high content of positively charged arginine (R) amino acids.

Substance	net charge [1]	antimicrobial activity [2]
VEVSVSVEV(d)PPTEVSVEVEV	net negative charge	–
VKVRVRVRVPPTRVRVRVKV (VKVRVRVRV[dP]PTRVRVRVKV-NH2) [PEP6R]	–	potent antimicrobial activity
